Measured values from US9708308B2, “Factor IXa inhibitors” (Merck Sharp & Dohme Corp., priority 2012, dated 2017).

target: Factor IXa (Homo sapiens, UniProt P00740); test: Determination of inhibitory activity against Factor IXa (cleavage of fluorescent peptide substrate); assay type: biochemical; settings: cleavage of fluorescent peptide CH3SO2-D-CHG-Gly-Arg-AFC, release of AFC; read-out: FIXa IC50
Summary of the method: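 Factor IXa activity followed via cleavage of CH3SO2-D-CHG-Gly-Arg-AFC, releasing AFC. Fluorescence read at excitation 405 nm, emission 510 nm.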

Sequence of Factor IXa (P00740 227-461 limits assumed): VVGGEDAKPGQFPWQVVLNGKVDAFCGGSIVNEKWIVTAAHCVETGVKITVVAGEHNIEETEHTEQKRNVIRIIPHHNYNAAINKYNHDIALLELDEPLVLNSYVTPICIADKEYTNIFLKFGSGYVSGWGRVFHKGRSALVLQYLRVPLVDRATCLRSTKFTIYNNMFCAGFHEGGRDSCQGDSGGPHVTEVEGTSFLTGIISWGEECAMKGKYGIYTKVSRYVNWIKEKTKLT
Sequence of Factor IXa (P00740 47-191 partner limits assumed): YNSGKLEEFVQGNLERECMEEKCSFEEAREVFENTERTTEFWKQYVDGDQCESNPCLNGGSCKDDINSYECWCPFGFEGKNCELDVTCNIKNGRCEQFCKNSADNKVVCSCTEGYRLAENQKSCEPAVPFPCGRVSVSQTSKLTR

| IC50 | Structure (SMILES) |
| --- | --- |
| 92.4 nM | COc1cc(-n2ccc(N3CCO[C@](C)([C@@](C)(O)C(=O)Nc4ccc5c(N)noc5c4)C3=O)n2)cnn1 [Example 149, (R)—N-(3-aminobenzo[d]isoxazol-6-yl)-2-hydroxy-2-((R)-4-(1-(6-methoxypyridazin-4-yl)-1H-pyrazol-3-yl)-2-methyl-3-oxomorpholin-2-yl)propanamide] |
| 66.2 nM | C[C@](O)(C(=O)Nc1ccc(CN)cc1)[C@H]1OCCN(c2ccn(-c3ccncc3)n2)C1=O [Example 150, (R)—N-(4-(aminomethyl)phenyl)-2-hydroxy-2-((R)-3-oxo-4-(1-(pyridin-4-yl)-1H-pyrazol-3-yl)morpholin-2-yl)propanamide] |
| 70 nM | C[C@](O)(C(=O)Nc1ccc(CN)c(F)c1)[C@H]1OCCN(c2ccn(-c3ccncc3)n2)C1=O [Example 151, (R)—N-(4-(aminomethyl)-3-fluorophenyl)-2-hydroxy-2-((R)-3-oxo-4-(1-(pyridin-4-yl)-1H-pyrazol-3-yl)morpholin-2-yl)propanamide] |
| 9.69 nM | C[C@]1([C@@H](O)C(=O)Nc2ccc(CN)cc2)OCCN(c2ccn(-c3ccncc3)n2)C1=O [Example 152, (R)—N-(4-(aminomethyl)phenyl)-2-hydroxy-2-((R)-2-methyl-3-oxo-4-(1-(pyridin-4-yl)-1H-pyrazol-3-yl)morpholin-2-yl)acetamide] |
| 12.7 nM | C[C@]1([C@@H](O)C(=O)Nc2ccc(CN)c(F)c2)OCCN(c2ccn(-c3ccncc3)n2)C1=O [Example 153, (R)—N-(4-(aminomethyl)-3-fluorophenyl)-2-hydroxy-2-((R)-2-methyl-3-oxo-4-(1-(pyridin-4-yl)-1H-pyrazol-3-yl)morpholin-2-yl)acetamide] |
| 1.98 nM | C[C@@H]1CN(c2ccn(-c3cnnc(C#N)c3)n2)C(=O)[C@@H]([C@@H](O)C(=O)Nc2ccc3c(N)noc3c2)O1 [Example 154, (R)—N-(3-Aminobenzo[d]isoxazol-6-yl)-2-((2R,6R)-4-(1-(6-cyanopyridazin-4-yl)-1H-pyrazol-3-yl)-6-methyl-3-oxomorpholin-2-yl)-2-hydroxyacetamide] |
| 1.96 nM | C[C@H]1CN(c2ccn(-c3cnnc(C#N)c3)n2)C(=O)[C@@H]([C@@H](O)C(=O)Nc2ccc3c(N)noc3c2)O1 [Example 155, (R)—N-(3-Aminobenzo[d]isoxazol-6-yl)-2-((2R,6S)-4-(1-(6-cyanopyridazin-4-yl)-1H-pyrazol-3-yl)-6-methyl-3-oxomorpholin-2-yl)-2-hydroxyacetamide] |
| 1.68 nM | CC1(C)CN(c2ccn(-c3cnnc(C#N)c3)n2)C(=O)[C@@H]([C@@H](O)C(=O)Nc2ccc3c(N)noc3c2)O1 [Example 156, (R)—N-(3-Aminobenzo[d]isoxazol-6-yl)-2-((R)-4-(1-(6-cyanopyridazin-4-yl)-1H-pyrazol-3-yl)-6,6-dimethyl-3-oxomorpholin-2-yl)-2-hydroxyacetamide] |
| 1.34 nM | C[C@@H]1CN(c2ccn(-c3ccnnc3)n2)C(=O)[C@@H]([C@@H](O)C(=O)Nc2ccc3c(N)noc3c2)O1 [Example 157, (R)—N-(3-aminobenzo[d]isoxazol-6-yl)-2-hydroxy-2-((2R,6R)-6-methyl-3-oxo-4-(1-(pyridazin-4-yl)-1H-pyrazol-3-yl)morpholin-2-yl)acetamide] |
| 4.4 nM | C[C@@H]1CN(c2nn(-c3ccnnc3)cc2F)C(=O)[C@@H]([C@@H](O)C(=O)Nc2ccc3c(N)noc3c2)O1 [Example 158, (R)—N-(3-aminobenzo[d]isoxazol-6-yl)-2-((2R,6R)-4-(4-fluoro-1-(pyridazin-4-yl)-1H-pyrazol-3-yl)-6-methyl-3-oxomorpholin-2-yl)-2-hydroxyacetamide] |
| 2.26 nM | COc1cc(-n2ccc(N3C[C@@H](C)O[C@H]([C@@H](O)C(=O)Nc4ccc5c(N)noc5c4)C3=O)n2)cnn1 [Example 159, (R)—N-(3-aminobenzo[d]isoxazol-6-yl)-2-hydroxy-2-((2R,6R)-4-(1-(6-methoxypyridazin-4-yl)-1H-pyrazol-3-yl)-6-methyl-3-oxomorpholin-2-yl)acetamide] |
| 2.27 nM | C[C@H]1CN(c2ccn(-c3ccnnc3)n2)C(=O)[C@@H]([C@@H](O)C(=O)Nc2ccc3c(N)noc3c2)O1 [Example 160, (R)—N-(3-aminobenzo[d]isoxazol-6-yl)-2-hydroxy-2-((2R,6S)-6-methyl-3-oxo-4-(1-(pyridazin-4-yl)-1H-pyrazol-3-yl)morpholin-2-yl)acetamide] |
| 32.3 nM | C[C@H]1CN(c2nn(-c3ccnnc3)cc2F)C(=O)[C@@H]([C@@H](O)C(=O)Nc2ccc3c(N)noc3c2)O1 [Example 161, (R)—N-(3-aminobenzo[d]isoxazol-6-yl)-2-((2R,6S)-4-(4-fluoro-1-(pyridazin-4-yl)-1H-pyrazol-3-yl)-6-methyl-3-oxomorpholin-2-yl)-2-hydroxyacetamide] |
| 2.61 nM | COc1cc(-n2ccc(N3C[C@H](C)O[C@H]([C@@H](O)C(=O)Nc4ccc5c(N)noc5c4)C3=O)n2)cnn1 [Example 162, (R)—N-(3-aminobenzo[d]isoxazol-6-yl)-2-hydroxy-2-((2R,6S)-4-(1-(6-methoxypyridazin-4-yl)-1H-pyrazol-3-yl)-6-methyl-3-oxomorpholin-2-yl)acetamide] |
| 11.3 nM | C[C@H]1CN(c2ccn(-c3ccncc3)n2)C(=O)[C@@H]([C@@H](O)C(=O)Nc2ccc3c(N)noc3c2)O1 [Example 163, (R)—N-(3-aminobenzo[d]isoxazol-6-yl)-2-hydroxy-2-((2R,6S)-6-methyl-3-oxo-4-(1-(pyridin-4-yl)-1H-pyrazol-3-yl)morpholin-2-yl)acetamide] |
| 5.68 nM | C[C@H]1CN(c2ccn(-c3ccnc(C#N)c3)n2)C(=O)[C@@H]([C@@H](O)C(=O)Nc2ccc3c(N)noc3c2)O1 [Example 164, (R)—N-(3-aminobenzo[d]isoxazol-6-yl)-2-((2R,6S)-4-(1-(2-cyanopyridin-4-yl)-1H-pyrazol-3-yl)-6-methyl-3-oxomorpholin-2-yl)-2-hydroxyacetamide] |
| 1.98 nM | C[C@@H]1CN(c2ccn(-c3ccnc(C#N)c3)n2)C(=O)[C@@H]([C@@H](O)C(=O)Nc2ccc3c(N)noc3c2)O1 [Example 165, (R)—N-(3-aminobenzo[d]isoxazol-6-yl)-2-((2R,6R)-4-(1-(2-cyanopyridin-4-yl)-1H-pyrazol-3-yl)-6-methyl-3-oxomorpholin-2-yl)-2-hydroxyacetamide] |
| 3.37 nM | C[C@@H]1CN(c2ccn(-c3ccncc3)n2)C(=O)[C@@H]([C@@H](O)C(=O)Nc2ccc3c(N)noc3c2)O1 [Example 166, (R)—N-(3-aminobenzo[d]isoxazol-6-yl)-2-hydroxy-2-((2R,6R)-6-methyl-3-oxo-4-(1-(pyridin-4-yl)-1H-pyrazol-3-yl)morpholin-2-yl)acetamide] |
| 17.8 nM | COc1cc(-n2ccc(N3C[C@H](C)O[C@H]([C@@H](O)C(=O)Nc4ccc5c(N)noc5c4)C3=O)n2)ccn1 [Example 167, (R)—N-(3-aminobenzo[d]isoxazol-6-yl)-2-hydroxy-2-((2R,6S)-4-(1-(2-methoxypyridin-4-yl)-1H-pyrazol-3-yl)-6-methyl-3-oxomorpholin-2-yl)acetamide] |
| 5.85 nM | COc1cc(-n2ccc(N3C[C@@H](C)O[C@H]([C@@H](O)C(=O)Nc4ccc5c(N)noc5c4)C3=O)n2)ccn1 [Example 168, (R)—N-(3-aminobenzo[d]isoxazol-6-yl)-2-hydroxy-2-((2R,6R)-4-(1-(2-methoxypyridin-4-yl)-1H-pyrazol-3-yl)-6-methyl-3-oxomorpholin-2-yl)acetamide] |
| 8.99 nM | C[C@H]1CN(c2ccn(-c3ccnc(C(F)(F)F)c3)n2)C(=O)[C@@H]([C@@H](O)C(=O)Nc2ccc3c(N)noc3c2)O1 [Example 169, (R)—N-(3-aminobenzo[d]isoxazol-6-yl)-2-hydroxy-2-((2R,6S)-6-methyl-3-oxo-4-(1-(2-(trifluoromethyl)pyridin-4-yl)-1H-pyrazol-3-yl)morpholin-2-yl)acetamide] |
| 2.42 nM | C[C@@H]1CN(c2ccn(-c3ccnc(C(F)(F)F)c3)n2)C(=O)[C@@H]([C@@H](O)C(=O)Nc2ccc3c(N)noc3c2)O1 [Example 170, (R)—N-(3-aminobenzo[d]isoxazol-6-yl)-2-hydroxy-2-((2R,6R)-6-methyl-3-oxo-4-(1-(2-(trifluoromethyl)pyridin-4-yl)-1H-pyrazol-3-yl)morpholin-2-yl)acetamide] |
| 20.9 nM | COc1cc(-n2ccc(N3CC(C)(C)O[C@H]([C@@H](O)C(=O)Nc4ccc5c(N)noc5c4)C3=O)n2)ccn1 [Example 171, (R)—N-(3-aminobenzo[d]isoxazol-6-yl)-2-hydroxy-2-((R)-4-(1-(2-methoxypyridin-4-yl)-1H-pyrazol-3-yl)-6,6-dimethyl-3-oxomorpholin-2-yl)acetamide] |
| 1.8 nM | CC1(C)CN(c2ccn(-c3ccnnc3)n2)C(=O)[C@@H]([C@@H](O)C(=O)Nc2ccc3c(N)noc3c2)O1 [Example 172, (R)—N-(3-aminobenzo[d]isoxazol-6-yl)-2-((R)-6,6-dimethyl-3-oxo-4-(1-(pyridazin-4-yl)-1H-pyrazol-3-yl)morpholin-2-yl)-2-hydroxyacetamide] |
| 21.1 nM | CC1(C)CN(c2nn(-c3ccnnc3)cc2F)C(=O)[C@@H]([C@@H](O)C(=O)Nc2ccc3c(N)noc3c2)O1 [Example 173, (R)—N-(3-aminobenzo[d]isoxazol-6-yl)-2-((R)-4-(4-fluoro-1-(pyridazin-4-yl)-1H-pyrazol-3-yl)-6,6-dimethyl-3-oxomorpholin-2-yl)-2-hydroxyacetamide] |
| 2.77 nM | COc1cc(-n2ccc(N3CC(C)(C)O[C@H]([C@@H](O)C(=O)Nc4ccc5c(N)noc5c4)C3=O)n2)cnn1 [Example 174, (R)—N-(3-aminobenzo[d]isoxazol-6-yl)-2-hydroxy-2-((R)-4-(1-(6-methoxypyridazin-4-yl)-1H-pyrazol-3-yl)-6,6-dimethyl-3-oxomorpholin-2-yl)acetamide] |
